One series has as its system B. subtilis (ATCC 23857). In words: Antibacterial broth microdilution MIC assay. The format is cell-based, Bacillus subtilis. As to conditions: Bacillus subtilis, ATCC23857; >99% inhibition of growth, MH broth, 20-22 h, 37 °C. As for the experimental part: (§1) The antibacterial activity of peptide analogs was tested against different bacterial strains, i.e., Salmonella enterica subsp. enterica serotype Typhimurium or Salmonella typhi (ATCC 14028), Staphylococcus aureus (NCTC 13277), Bacillus subtilis (ATCC 23857), Escherichia coli (ATCC 25922), and Pseudomonas aeruginosa (ATCC 10145). These strains were obtained from the microbial bank of Dr. Panjwani Center for Molecular Medicine and Drug research (PCMD), International Center for Chemical and Biological Sciences (ICCBS), University of Karachi. Colonies of these bacterial strains were grown in respective agar media, then inoculated in Mueller Hinton (MH) broth (Oxoid, UK) and incubated at 37 °C overnight. The peptide solutions were first diluted 1 in 100 (from the stock solution at 20 mM) and then further two-fold dilution in MH broth in a sterile 96-well plate was performed, resulting in 100 µL of broth containing increasing concentrations of analogs. Bacteria in their exponential growth phase were diluted in MH broth, and 100 µL of this suspension was added in each well. […] Then, these plates were incubated at 37 °C for 20–22 h. MIC (Minimum Inhibitory Concentration) values were determined as the concentrations of peptides causing >99% inhibition of bacterial growth.

A further series concerns E. coli (ATCC 25922). In words: Antibacterial broth microdilution MIC assay. It counts as cell-based, Escherichia coli. As to conditions: Escherichia coli, ATCC25922; >99% inhibition of growth, MH broth, 20-22 h, 37 °C. The method, then:
as §1

Series [1] has as its system P. aeruginosa (ATCC 10145). Briefly: Antibacterial broth microdilution MIC assay. The format is cell-based, Pseudomonas aeruginosa. As to conditions: Pseudomonas aeruginosa, ATCC10145; >99% inhibition of growth, MH broth, 20-22 h, 37 °C. As for the experimental part: as §1
Another series deals with C. albicans (ATCC 36082). In words: microbe, parasite or virus in culture. As to conditions: Candida albicans, ATCC36082, 24 h, read-out: MIC C. albicans (ATCC 36082). As for the experimental part: Candida albicans (ATCC 36082) was cultured on Sabourad Dextrose Agar (SDA). A single colony was inoculated in Sabouraud Dextrose Broth (SDB) medium and grown overnight at 37 °C while shaking. The next day, the susceptibility of C. albicans was tested using a broth microdilution assay. Peptide analogs were diluted in SDB media by two-fold dilution, resulting in 100 µL of medium containing increasing concentrations of analogs. The overnight culture (turbidity at OD600 = 1) was 1000× diluted in SDB. Then 100 µL of this suspension was added to each well, resulting in a final 200 µL suspension containing 2–4 × 10^5 CFU/mL. The plate was incubated at 37 °C for 24 h. The next day, MIC (Minimum Inhibitory Concentration) values were determined as the concentrations of peptides causing > 99% inhibition of yeast growth.

The subject of series [2] is Human breast cancer (MCF-7) cells. In words: cells. The format is cell-based. As to conditions: Homo sapiens, MCF7; MTT, 24 h exposure; read-out: IC50 on Breast Cancer (MCF-7). The method, then:
(§2) Human breast cancer (MCF-7) and human cervical cancer (HeLa) cells were obtained from the cell culture bank of PCMD in ICCBS, University of Karachi. These cells were maintained in Dulbecco’s Modified Eagle Medium (DMEM), supplemented with 10% fetal bovine serum, and incubated at 37 °C and 5% CO2. The antiproliferative activity of the samples was determined by a MTT assay. Briefly, the cells were washed with PBS and trypsinized. After determination of the cell number using Malassez cell counting, 100 µL of the cell suspension were seeded in a 96-well plate at the density of 6000 cells/well and incubated at 37 °C and 5% CO2. After 24 h, the cells were treated with increasing concentrations of analogs. The next day, media was removed and 200 µL of MTT dye (0.5 mg/mL) was added in each well and incubated for 3 h at 37 °C in 5% CO2 incubator. Then, the media was removed and 100 µL of DMSO was added to solubilize formazan crystals. After one minute of shaking, the absorbance was recorded at 540 nm in microplate reader (Multiskan GO, ThermoScientific, Waltham, MA, USA). Finally, the percent inhibition of proliferation was calculated using the following formula: % inhibition of proliferation=O.D of treated well−O.D of media control/O.D of untreated control−O.D of media control×100

Series [3] concerns human cervical cancer (HeLa) cells. Briefly: cells. The format is cell-based. As to conditions: Homo sapiens, HeLa; MTT, 24 h exposure; read-out: IC50 on Cervical Cancer (HeLa). As for the experimental part:
as §2

For series [4], the system named is human red blood cells (RBC). In words: Hemolytic assay. The format is cell-based. As to conditions: human, 1 h. The method, then: For the hemolytic assay, fresh human blood (2 mL) was obtained from a healthy donor in EDTA tube while following the protocol of approval from the Independent Ethics Committee of ICCBS (approval number ICCBS/IEC-047-HB-2019/Protocol/1.0). The blood was centrifuged and upper supernatant plasma was removed. The cell pellets were washed with sterile PBS three times. The washed blood cells were then diluted 25 times to make 4% concentration of the initial blood cells. Red blood cells (500 µL) were treated with increasing concentrations of analogs, with triton X-100 at 0.1% being used as positive control giving 100% hemolysis. After 1 h of incubation at 37 °C, tubes were centrifuged at 800 rpm for 5 min to pellet down red blood cells. After centrifugation, 200 µL of supernatant were transferred into a 96 well plate and the absorbance was recorded at 576 nm using a microplate reader (MultiSkan Go, ThermoScientific). Then, the following formula was applied to calculate percent hemolysis: % Hemolysis=O.D of test sample−O.D of PBS control/O.D of Tritox×positive control−O.D of PBS control×100

A further series deals with S. aureus (NCTC 13277). Briefly: microbe, parasite or virus in culture. As to conditions: Staphylococcus aureus, NCTC13277, read-out: MIC S. aureus (NCTC 13277).
For another series, the system named is S. typhi (ATCC 14028). In words: microbe, parasite or virus in culture. As to conditions: Salmonella enterica, read-out: MIC S. typhi (ATCC 14028).

SMILES strings stand for the structures. Converted amounts (≈) assume the structure as drawn. Where only a bound is given, the exact number is not on record here.

Regarding `C[C@H]1COc2c(N3CCN(C)CC3)c(F)cc3c(=O)c(C(=O)O)cn1c23` [Levofloxacin, reference compound], the MIC was 0.39 µM (≈ 0.141 µg/mL) against B. subtilis (ATCC 23857); 0.78 µM (≈ 0.282 µg/mL) with E. coli (ATCC 25922); 1.56 µM (≈ 0.564 µg/mL) in series [1]; over 250 µM in the series on C. albicans (ATCC 36082); 25 µM (≈ 9.03 µg/mL) in the series with S. aureus (NCTC 13277); 0.39 µM (≈ 0.141 µg/mL) in the series with S. typhi (ATCC 14028). For the same compound, the IC50 in series [2] and in series [3] was over 100 µM throughout. The “HC50 on Human Red Blood Cells (RBCs)” value in series [4] is listed as over 100 µM.
